Earlier results in PMC10444862, “Using macromolecular electron densities to improve the enrichment of active compounds in virtual screening” (Communications Chemistry, 2023).

Tested on: AMPC
Conditions: activities reported in the DUD-E dataset; cited from earlier work

| SMILES | label |
| --- | --- |
| CSCC[C@@H](C(=O)O)N1C(=O)c2ccc(C(=O)O)cc2C1=O [212_4, CSCC[C@@H](C(=O)[O-])N1C(=O)c2ccc(C(=O)[O-])cc2C1=O] | active |
| Nc1onc(-c2ccc(Cl)cc2)c1C(=O)O [317_12, Nc1onc(-c2ccc(Cl)cc2)c1C(=O)[O-]] | active |
| Cc1nc2ccc(P(=O)(O)O)cc2s1 [319_2, Cc1nc2ccc([P@](=O)([O-])O)cc2s1] | active |
| O=C(O)c1sccc1S(=O)(=O)Nc1ccccc1N1CCCCC1 [104_58, O=C([O-])c1sccc1S(=O)(=O)Nc1ccccc1N1CCCCC1] | active |
| O=C(O)c1ccccc1S(=O)(=O)Nc1ccc(Cl)cc1 [109_49, O=C([O-])c1ccccc1S(=O)(=O)Nc1ccc(Cl)cc1] | active |
